From patent publication US20260166016A1, “GPR139 RECEPTOR AGONIST, PREPARATION METHOD THEREFOR, AND APPLICATION THEREOF” (NEUBO APPTECH CO., LTD., priority 2022, published 2026) come the findings set out here.

Molecules are shown by their SMILES.

Test [1] has as its system acutely restrained mice. Briefly: Acute restraint mouse stress model, plasma corticosterone (ELISA). The following applies: male C57BL/6J mice, gavage 1, 5, 25 mg/kg, 30 minutes after administration and 3 hours of acute restraint, dose-dependent, FIG. 1. Type of test: in vivo. On the procedure:
Mouse: Male C57BL/6J; 8 weeks old; Weight: 20-25 g; Quantity: 40 pieces
Group 1, acute restraint+placebo group, 10 mice; the mice were divided into 2 cages, 5 mice per cage. On the morning of the day of the experiment, the mice in this group were subjected to acute restraint, during which they were fasted and deprived of water.
Group 2, acute restraint+low-dose of compound NRB181 group (1 mg/kg), 10 mice; the mice were divided into 2 cages, 5 mice per cage. On the morning of the day of the experiment, the mice in this group were subjected to acute restraint, during which they were fasted and deprived of water.
Group 3, acute restraint+moderate-dose of compound NRB181 group (5 mg/kg), 10 mice; the mice were divided into 2 cages, 5 mice per cage. On the morning of the day of the experiment, the mice in this group were subjected to acute restraint, during which they were fasted and deprived of water.
Group 4, acute restraint+high-dose of compound NRB181 group (25 mg/kg), 10 mice; the mice were divided into 2 cages, 5 mice per cage. On the morning of the day of the experiment, the mice in this group were subjected to acute restraint, during which they were fasted and deprived of water.
18.3.1 On the day before the experiment, a placebo was prepared: 1 mL of 100% DMSO and 9 mL of formula x solution was added. […]
In general terms: In an ELISA, binding on a coated surface is turned into a signal by an enzyme label.

In test [2] the test system is mice in Forced Swim Test. Briefly: Mouse Forced Swim Test. Conditions: male CD1 (ICR) mice; i.p. 2.5 mg/mL solution at 0.1 mL/10 g; test 10 minutes after injection; FIG. 3. The test is classed as in vivo. How it is done: Mouse strain: Male Crl: CD1 (ICR) mice; Weight: 35-40 g; Quantity: 16 pieces
Group 1, placebo group: 8 mice, 4 mice per cage;
Group 2, NRB181 group: 8 mice, 4 mice per cage.
20.3.1 Preparation of placebo before experiment: 10% DMSO+saline.
20.3.2 Preparation of compound NRB181 before experiment: 10 mg of NRB181 was weighed and added to 4 mL of placebo, mixed well.
20.3.4 On the morning of the experimental day, all mice were weighed and then evenly divided into each group based on their weight, with 8 mice per group, for a total of 16 mice.
20.3.5 The mice were transferred to the behavioral laboratory and allowed to adapt for 3 hours.
20.3.6 Drug injection: mice of Group 1 received intraperitoneal injection of placebo at a dose of 0.1 mL/10 g; after Forced Swim Test of the mice in Group 1, mice in Group 2 were intraperitoneally injected with compound NRB181 at a dose of 0.1 mL/10 g.
Mice of Group 1 underwent Forced Swim Test in sequence 10 minutes after injection. The mice were placed in a glass jar (diameter 10 cm, height 25 cm; water depth 15 cm, water temperature 23° C.) and swam for 6 minutes. The first 2 minutes were the adaptation period, and the last 4 minutes were the experimental period; The software records the immobility time, swimming time, and climbing time of mice within 4 minutes. […]

As to `C[C@H](NC(=O)CNC(=O)c1cc(Cl)ccn1)c1c(F)cccc1F` [NRB181], the “expression level of corticosterone” value in test [1] is on record as “significantly reduced”. In addition, the “time of despair (immobility time) in Forced Swim Test” value in test [2] is given as “significantly reduce”.
